Assay results as given in US20050192243A1, “Neuromuscular blocking agents and antagonists thereof” (priority 2003, published 2005).

Assays:
Rhesus monkeys [1] = assay: Recovery of twitch response from GW 280430A neuromuscular block with or without cysteine-like antagonist; type: in vivo
Description: Rhesus monkeys were anesthetized with ketamine (5 mg/Kg) and thiopental (5 mg/Kg) given intramuscularly or intravenously. Anesthesia was maintained with a mixture of halothane (1.5%), nitrous oxide (60%) and oxygen (40%). The common peroneal nerve was stimulated supramaximally with square wave pulses of 0.2 m sec duration at a rate of 0.15 Hz. Twitch contractions were recorded via the tendon of the extensor digitorum muscle.
In all animals, the trachea was intubated and ventilation was controlled at 12-15 ml/kg, 18-24 breaths per minute. A peripheral vein and artery were cannulated for drug administration and for recording or arterial pressure, respectively.
Rhesus monkeys were anesthetized and treated with a halofumarate neuromuscular blocking agent as described in Example 1.
Several tests were generally run (#1, #2, #3, etc.) with time in between each test so that the animal could recover.

Rhesus monkeys [2] = conditions: GW 280430A-treated animals
Rhesus monkeys [3] = system: Rhesus monkeys
Description: Rhesus monkeys were anesthetized with ketainine (5 mg/Kg) and thiopental (5 mg/Kg) given intramuscularly or intravenously. Anesthesia was maintained with a mixture of halothane (1.5%), nitrous oxide (60%) and oxygen (40%). The common peroneal nerve was stimulated supramaximally with square wave pulses of 0.2 m sec duration at a rate of 0.15 Hz. Twitch contractions were recorded via the tendon of the extensor digitorum muscle.
In all animals, the trachea was intubated and ventilation was controlled at 12-15 ml/kg, 18-24 breaths per minute. A peripheral vein and artery were cannulated for drug administration and for recording of arterial pressure, respectively. A dosage of 0.1 mg/kg of the 353044 intermediate duration halofumarate neuromuscular blocking agent was administered intravenously. The 353044 intermediate duration halofumarate neuromuscular blocking agent has the following structure, wherein X is Cl. [drawing 11]
For comparison, 0.5 mg/kg of the ultra-short 280430A halofumarate neuromuscular blocking agent was administered to a separate set of animals. […] Animals that had received the 353044 intermediate duration halofumarate neuromuscular blocking agent, then received a combination of […] 10 mg/kg glutathione.

[4] = #4 (after 3 administrations of 430A), 0.05 mg/kg 430A & cysteine 5 mg/kg
[5] = #4 (after 3 administrations of 430A), 0.05 mg/kg 430A & cysteine 10 mg/kg
[6] = Buck 13.2, 0.2 mg/kg 430A & cysteine 10.0 mg/kg
[7] = Count 13.1 kg, #4, 0.2 mg/kg 430A & cysteine 4 mg/kg
[8] = Impy 12.5 kg, #2, 0.05 mg/kg 430A & cysteine 5 mg/kg
[9] = Means of Skye, Impy & Count, 0.05 mg/kg 430A & cysteine 4 or 5 mg/kg
[10] = Means of Skye, Impy and Buck, 430A & Cysteine 10 mg/kg
[11] = Morgan 12.4 kg, #3, 0.1 mg/kg 430A & cysteine 20 mg/kg
[12] = Skye 11.6 kg, 0.2 mg/kg 430A & cysteine 10.0 mg/kg
[13] = Skye 12.1 kg, #2, 0.05 mg/kg 430A & cysteine 2 mg/kg
[14] = Buck 13.2, Baseline (430A, no cysteine)
[15] = Count 13.1 kg, #3, 0.2 mg/kg 430A alone
[16] = Impy 12.5 kg, #1, 0.05 mg/kg 430A alone
[17] = Impy 12.5 kg, #3, 0.05 mg/kg 430A alone
[18] = Means of Skye, Impy & Count, Baseline (430A, no cysteine)
[19] = Means of Skye, Impy and Buck, Baseline (430A, no cysteine)
[20] = Morgan 12.4 kg, #1, 0.05 mg/kg 430A alone
[21] = Morgan 12.4 kg, #2, 0.01 mg/kg 430A alone
[22] = Skye 11.6 kg, Baseline (430A, no cysteine)
[23] = Skye 12.1 kg, #1, 0.05 mg/kg 430A alone
[24] = Skye 12.1 kg, #3, 0.05 mg/kg 430A alone
[25] = 5 mg/kg antagonist after GW 280430A, FIG. 4, FIG. 5

Structure (SMILES): N[C@@H](CS)C(=O)O [cysteine]
- time to complete reversal of the block in neuromuscular activity after administration (Rhesus monkeys [1]; 5 mg/kg cysteine after GW 280430A, FIG. 3): ≤ 100 s
- 25-75% recovery interval (Rhesus monkeys [1]; [4]): 63 s
- Recovery 5-95% (Rhesus monkeys [1]; [4]): 237 s
- time to 5% twitch recovery (Rhesus monkeys [1]; [4]): 15 s
- time to 25% twitch recovery (Rhesus monkeys [1]; [4]): 39 s
- time to 75% twitch recovery (Rhesus monkeys [1]; [4]): 102 s
- time to 95% twitch recovery (Rhesus monkeys [1]; [4]): 252 s
- 25-75% recovery interval (Rhesus monkeys [1]; [5]): 15 s
- Recovery 5-95% (Rhesus monkeys [1]; [5]): 96 s
- time to 5% twitch recovery (Rhesus monkeys [1]; [5]): 18 s
- time to 25% twitch recovery (Rhesus monkeys [1]; [5]): 51 s
- time to 75% twitch recovery (Rhesus monkeys [1]; [5]): 66 s
- time to 95% twitch recovery (Rhesus monkeys [1]; [5]): 114 s
- 25-75% recovery interval (Rhesus monkeys [1]; [6]): 2 s
- Recovery 5-95% (Rhesus monkeys [1]; [6]): 42 s
- time to 5% twitch recovery (Rhesus monkeys [1]; [6]): 6 s
- time to 25% twitch recovery (Rhesus monkeys [1]; [6]): 24 s
- time to 75% twitch recovery (Rhesus monkeys [1]; [6]): 26 s
- time to 95% twitch recovery (Rhesus monkeys [1]; [6]): 48 s
- Recovery 5% (Rhesus monkeys [1]; [7]): 9 s
- Recovery 5-95% (Rhesus monkeys [1]; [7]): 27 s
- Recovery 25% (Rhesus monkeys [1]; [7]): 15 s
- Recovery 25-75% (Rhesus monkeys [1]; [7]): 15 s
- Recovery 75% (Rhesus monkeys [1]; [7]): 30 s
- Recovery 95% (Rhesus monkeys [1]; [7]): 36 s
- Recovery 5% (Rhesus monkeys [1]; [8]): 6 s
- Recovery 5-95% (Rhesus monkeys [1]; [8]): 90 s
- Recovery 25% (Rhesus monkeys [1]; [8]): 33 s
- Recovery 25-75% (Rhesus monkeys [1]; [8]): 15 s
- Recovery 75% (Rhesus monkeys [1]; [8]): 48 s
- Recovery 95% (Rhesus monkeys [1]; [8]): 96 s
- 25-75% recovery interval (Rhesus monkeys [1]; [9]): 31 s
- time to 5% twitch recovery (Rhesus monkeys [1]; [9]): 10 s
- time to 25% twitch recovery (Rhesus monkeys [1]; [9]): 29 s
- time to 75% twitch recovery (Rhesus monkeys [1]; [9]): 60 s
- time to 95% twitch recovery (Rhesus monkeys [1]; [9]): 125 s
- 25-75% recovery interval (Rhesus monkeys [1]; [10]): 12 s
- Recovery 5-95% (Rhesus monkeys [1]; [10]): 76 s
- time to 5% twitch recovery (Rhesus monkeys [1]; [10]): 10 s
- time to 25% twitch recovery (Rhesus monkeys [1]; [10]): 31 s
- time to 75% twitch recovery (Rhesus monkeys [1]; [10]): 43 s
- time to 95% twitch recovery (Rhesus monkeys [1]; [10]): 86 s
- Recovery 5% (Rhesus monkeys [1]; [11]): 24 s
- Recovery 5-95% (Rhesus monkeys [1]; [11]): 144 s
- Recovery 25% (Rhesus monkeys [1]; [11]): 42 s
- Recovery 25-75% (Rhesus monkeys [1]; [11]): 24 s
- Recovery 75% (Rhesus monkeys [1]; [11]): 66 s
- Recovery 95% (Rhesus monkeys [1]; [11]): 168 s
- 25-75% recovery interval (Rhesus monkeys [1]; [12]): 18 s
- Recovery 5-95% (Rhesus monkeys [1]; [12]): 90 s
- time to 5% twitch recovery (Rhesus monkeys [1]; [12]): 6 s
- time to 25% twitch recovery (Rhesus monkeys [1]; [12]): 18 s
- time to 75% twitch recovery (Rhesus monkeys [1]; [12]): 36 s
- time to 95% twitch recovery (Rhesus monkeys [1]; [12]): 96 s
- Recovery 5% (Rhesus monkeys [1]; [13]): 10 s
- Recovery 5-95% (Rhesus monkeys [1]; [13]): 208 s
- Recovery 25% (Rhesus monkeys [1]; [13]): 35 s
- Recovery 25-75% (Rhesus monkeys [1]; [13]): 65 s
- Recovery 75% (Rhesus monkeys [1]; [13]): 100 s
- Recovery 95% (Rhesus monkeys [1]; [13]): 218 s
- side effects at highest dosage tested (Rhesus monkeys [2]; cysteine 20 mg/kg): no negative side effects
- effect on blood pressure or heart rate (Rhesus monkeys [2]; cysteine, therapeutic range (5-10 mg/Kg), FIG. 2): no significant affect on blood pressure or heart rate

Structure (SMILES): COc1cc2c(cc1OC)[C@H](c1cc(OC)c(OC)c(OC)c1)[N@@+](C)(CCCOC(=O)/C=C(\Cl)C(=O)OCCC[N@+]1(C)CCc3cc(OC)c(OC)cc3[C@H]1Cc1cc(OC)c(OC)c(OC)c1)CC2.[Cl-].[Cl-] [GW 280430A, (Z)-2-Chloro-4-{3-[(1S,2R)-6,7-dimethoxy-2-methyl-1-(3,4,5-trimethoxyphenyl)-1,2,3,4-tetrahydro-2-isoquinolinio]propyl}-1-{3{(1R,2S)-6,7-dimethoxy-2-methyl-1-[(3,4,5-trimethoxyphenyl)methyl]-1,2,3,4-tetrahydro-2-isoquinolinio}propyl}-2-butenedioate dichloride]
- 25-75% recovery interval (Rhesus monkeys [1]; [14]): 54 s
- Recovery 5-95% (Rhesus monkeys [1]; [14]): 114 s
- time to 5% twitch recovery (Rhesus monkeys [1]; [14]): 12 s
- time to 25% twitch recovery (Rhesus monkeys [1]; [14]): 48 s
- time to 75% twitch recovery (Rhesus monkeys [1]; [14]): 102 s
- time to 95% twitch recovery (Rhesus monkeys [1]; [14]): 126 s
- Recovery 5% (Rhesus monkeys [1]; [15]): 9 s
- Recovery 5-95% (Rhesus monkeys [1]; [15]): 75 s
- Recovery 25% (Rhesus monkeys [1]; [15]): 24 s
- Recovery 25-75% (Rhesus monkeys [1]; [15]): 33 s
- Recovery 75% (Rhesus monkeys [1]; [15]): 57 s
- Recovery 95% (Rhesus monkeys [1]; [15]): 84 s
- Recovery 5% (Rhesus monkeys [1]; [16]): 30 s
- Recovery 5-95% (Rhesus monkeys [1]; [16]): 141 s
- Recovery 25% (Rhesus monkeys [1]; [16]): 63 s
- Recovery 25-75% (Rhesus monkeys [1]; [16]): 57 s
- Recovery 75% (Rhesus monkeys [1]; [16]): 120 s
- Recovery 95% (Rhesus monkeys [1]; [16]): 171 s
- Recovery 75% (Rhesus monkeys [1]; [17]): 45 s
- Recovery 95% (Rhesus monkeys [1]; [17]): 78 s
- 25-75% recovery interval (Rhesus monkeys [1]; [18]): 75 s
- Recovery 5-95% (Rhesus monkeys [1]; [18]): 193 s
- time to 5% twitch recovery (Rhesus monkeys [1]; [18]): 16 s
- time to 25% twitch recovery (Rhesus monkeys [1]; [18]): 46 s
- time to 75% twitch recovery (Rhesus monkeys [1]; [18]): 121 s
- time to 95% twitch recovery (Rhesus monkeys [1]; [18]): 209 s
- 25-75% recovery interval (Rhesus monkeys [1]; [19]): 77 s
- Recovery 5-95% (Rhesus monkeys [1]; [19]): 193 s
- time to 5% twitch recovery (Rhesus monkeys [1]; [19]): 22 s
- time to 25% twitch recovery (Rhesus monkeys [1]; [19]): 61 s
- time to 75% twitch recovery (Rhesus monkeys [1]; [19]): 138 s
- time to 95% twitch recovery (Rhesus monkeys [1]; [19]): 215 s
- Recovery 25% (Rhesus monkeys [1]; [20]): 40 s
- Recovery 25-75% (Rhesus monkeys [1]; [20]): 103 s
- Recovery 75% (Rhesus monkeys [1]; [20]): 143 s
- Recovery 95% (Rhesus monkeys [1]; [20]): 233 s
- Recovery 5% (Rhesus monkeys [1]; [21]): 30 s
- Recovery 5-95% (Rhesus monkeys [1]; [21]): 282 s
- Recovery 25% (Rhesus monkeys [1]; [21]): 42 s
- Recovery 25-75% (Rhesus monkeys [1]; [21]): 144 s
- Recovery 75% (Rhesus monkeys [1]; [21]): 186 s
- Recovery 95% (Rhesus monkeys [1]; [21]): 312 s
- 25-75% recovery interval (Rhesus monkeys [1]; [22]): 120 s
- Recovery 5-95% (Rhesus monkeys [1]; [22]): 324 s
- time to 5% twitch recovery (Rhesus monkeys [1]; [22]): 24 s
- time to 25% twitch recovery (Rhesus monkeys [1]; [22]): 72 s
- time to 75% twitch recovery (Rhesus monkeys [1]; [22]): 192 s
- time to 95% twitch recovery (Rhesus monkeys [1]; [22]): 348 s
- Recovery 5% (Rhesus monkeys [1]; [23]): 9 s
- Recovery 5-95% (Rhesus monkeys [1]; [23]): 363 s
- Recovery 25% (Rhesus monkeys [1]; [23]): 51 s
- Recovery 25-75% (Rhesus monkeys [1]; [23]): 135 s
- Recovery 75% (Rhesus monkeys [1]; [23]): 186 s
- Recovery 95% (Rhesus monkeys [1]; [23]): 372 s
- Recovery 25% (Rhesus monkeys [1]; [24]): 143 s
- Recovery 25-75% (Rhesus monkeys [1]; [24]): 122 s
- Recovery 75% (Rhesus monkeys [1]; [24]): 265 s
- Recovery 95% (Rhesus monkeys [1]; [24]): 368 s
- speed of recovery compared with 353044, with antagonist (Rhesus monkeys [3]; 0.50 mg/kg GW 280430A + 5 mg/kg cysteine vs 0.10 mg/kg 353044 + cysteine and glutathione, FIG. 9): again faster
- speed of recovery compared with 353044, no antagonist (Rhesus monkeys [3]; 0.50 mg/kg GW 280430A vs 0.10 mg/kg 353044, FIG. 9 solid lines): recovered faster

Structure (SMILES): N[C@@H](CCC(=O)N[C@@H](CS)C(=O)NCC(=O)O)C(=O)O [glutathione]
- time to complete reversal of the block in neuromuscular activity after administration (Rhesus monkeys [1]; [25]): ≤ 140 s

Structure (SMILES): CC(=O)N[C@@H](CS)C(=O)O [N-acetylcysteine, reference compound]
- time to complete reversal of the block in neuromuscular activity after administration (Rhesus monkeys [1]; [25]): ≤ 165 s
